Test results published in patent US20060041123A1, “Antibacterial agents” (priority 2002, published 2006).

Assay: Antimicrobial activity assay: whole-cell MIC by broth microdilution (NCCLS M7-A6)
Type: cell-based
Conditions: not given
Method in brief: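 Broth microdilution per NCCLS M7-A6, with serial two-fold compound dilutions from 0.016 to 16 mcg/mL. MIC read as the lowest concentration inhibiting visible growth, using a mirror reader.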
For `COc1ccc2ncc(F)c(CCN3CC[C@H](NCc4ccc5c(n4)NC(=O)CO5)[C@H](O)C3)c2n1.Cl.Cl` [Example 68, 6-{[((3R,4S)-1-{2-[3-fluoro-6-(methoxy)-1,5-naphthyridin-4-yl]ethyl}-3-hydroxy-4-piperidinyl)amino]methyl}-2H-pyrido[3,2-b][1,4]oxazin-3(4H)-one dihydrochloride], the MIC was at most 2 µg/mL.
Work on `COc1ccc2ncc(F)c(CCN3CCC(NCc4ccc5nsnc5c4)CC3)c2c1.Cl.Cl` [Example 79, N-(2,1,3-benzothiadiazol-5-ylmethyl)-1-{2-[3-fluoro-6-(methoxy)-4-quinolinyl]ethyl}-4-piperidinamine dihydrochloride] yielded an MIC of at most 2 µg/mL.
In the case of `COc1ccc2ncc(F)c(CCN3CCC(NCc4ccc5c(n4)NCCS5)CC3)c2c1.Cl.Cl` [Example 81, N-(3,4-dihydro-2H-pyrido[3,2-b][1,4]thiazin-6-ylmethyl)-1-{2-[3-fluoro-6-(methoxy)-4-quinolinyl]ethyl}-4-piperidinamine dihydrochloride], the MIC is reported as at most 2 µg/mL.

Same assay, conditions: versus all the organisms named above (S. aureus WCUH29, S. pneumoniae 1629, S. pyogenes CN 10, E. faecalis 2, H. influenzae NEMC1, E. coli 7623, M. catarrhalis Ravasio); read-out: MIC
In the case of `COc1ccc2ncc(F)c(CCN3CCC(NCc4cc5c(cn4)OCCS5)CC3)c2n1.Cl.Cl` [Example 60, N-(2,3-Dihydro[1,4]oxathiino[2,3-c]pyridin-7-ylmethyl)-1-{2-[3-fluoro-6-(methoxy)-1,5-naphthyridin-4-yl]ethyl}-4-piperidinamine dihydrochloride], the MIC is reported as at most 2 µg/mL.
Compound `COc1ccc2ncc(F)c(CCN3CCC(NCc4cc5c(cn4)OCS5)CC3)c2n1.Cl.Cl` [Example 61, 1-{2-[3-Fluoro-6-(methoxy)-1,5-naphthyridin-4-yl]ethyl}-N-([1,3]oxathiolo[5,4-c]pyridin-6-ylmethyl)-4-piperidinamine dihydrochloride] has an MIC of at most 2 µg/mL.
Work on `COc1ccc2ncc(F)c(CCN3CCC(NC(=O)c4nc5c(cc4F)SCC(=O)N5)CC3)c2n1.Cl.Cl` [Example 62, 7-Fluoro-N-(1-{2-[3-fluoro-6-(methoxy)-1,5-naphthyridin-4-yl]ethyl}-4-piperidinyl)-3-oxo-3,4-dihydro-2H-pyrido[3,2-b][1,4]thiazine-6-carboxamide dihydrochloride] yielded an MIC of at most 2 µg/mL.
In the case of `COc1cc(F)c2ncc(F)c(CCN3CC[C@H](NCc4ccc5c(n4)NC(=O)CO5)[C@H](O)C3)c2c1.Cl.Cl` [Example 75, 6-{[((3R,4S)-1-{2-[3,8-difluoro-6-(methoxy)-4-quinolinyl]ethyl}-3-hydroxy-4-piperidinyl)amino]methyl}-2H-pyrido[3,2-b][1,4]oxazin-3(4H)-one dihydrochloride], the MIC is reported as at most 2 µg/mL.
For `COc1ccc2ncc(F)c(CCN3CCC(NCC4=CC=C5CCCN=C5N4)CC3)c2c1.Cl.Cl` [Example 77, 1-{2-[3-fluoro-6-(methoxy)-4-quinolinyl]ethyl}-N-(1,5,6,7-tetrahydro-1,8-naphthyridin-2-ylmethyl)-4-piperidinamine dihydrochloride], the MIC was at most 2 µg/mL.
Work on `COc1ccc2ncc(F)c(CCN3CCC(NCc4cnc5c(c4)NC(=O)CS5)CC3)c2c1.Cl.Cl` [Example 84, 7-{[(1-{2-[3-fluoro-6-(methoxy)-4-quinolinyl]ethyl}-4-piperidinyl)amino]methyl}1H-pyrido[2,3-b][1,4]thiazin-2(3H)-one dihydrochloride] yielded an MIC of at most 2 µg/mL.
With `COc1ccc2ncc(F)c(CCN3CCC(NCc4cnc5c(c4)OCCO5)CC3)c2c1.Cl.Cl` [Example 85, N-(2,3-dihydro[1,4]dioxino[2,3-b]pyridin-7-ylmethyl)-1-(2-[3-fluoro-6-(methoxy)-4-quinolinyl]ethyl}-4-piperidinamine dihydrochloride] the MIC was at most 2 µg/mL.
`COc1ccc2ncc(F)c(CCN3CCC(NCc4cc5c(cn4)OCCS5)CC3)c2c1.Cl.Cl` [Example 86, N-(2,3-dihydro[1,4]oxathiino[2,3-c]pyridin-7-ylmethyl)-1-{2-[3-fluoro-6-(methoxy)-4-quinolinyl]ethyl}-4-piperidinamine dihydrochloride] gave an MIC of at most 2 µg/mL.
`COc1ccc2ncc(Cl)c(CCN3CCC(NCc4cc5c(cn4)OCCO5)(C(N)=O)CC3)c2n1.Cl.Cl` [Example 91, 1-{2-[3-chloro-6-(methoxy)-1,5-naphthyridin-4-yl]ethyl}-4-[(2,3-dihydro[1,4]dioxino[2,3-c]pyridin-7-ylmethyl)amino]-4-piperidinecarboxamide dihydrochloride] gave an MIC of at most 2 µg/mL.
`COc1ccc2ncc(F)c(CCN3CCC(CO)(NCc4cc5c(cn4)OCCO5)CC3)c2c1.Cl.Cl` [Example 92, (4[(2,3-dihydro[1,4]dioxino[2,3-c]pyridin-7-ylmethyl)amino]-1-{2-[3-fluoro-6-(methoxy)-4-quinolinyl]ethyl}-4-piperidinyl)methanol dihydrochloride] showed an MIC of at most 2 µg/mL.
`COc1ccc2ncc(F)c(CCN3CCC(CO)(NC(=O)c4ccc5c(n4)NC(=O)CS5)CC3)c2n1.Cl` [Example 93, N-[1-{2-[3-fluoro-6-(methoxy)-1,5-naphthyridin-4-yl]ethyl}-4-(hydroxymethyl)-4-piperidinyl]-3-oxo-3,4-dihydro-2H-pyrido[3,2-b][1,4]thiazine-6-carboxamide hydrochloride] gave an MIC of at most 2 µg/mL.
`COc1ccc2ncc(F)c(CCN3CCC(NC(=O)c4ccc5c(n4)NC(=O)CO5)CC3)c2c1.Cl` [Example 94, N-(1-{2-[3-fluoro-6-(methoxy)-4-quinolinyl]ethyl}-4-piperidinyl)-3-oxo-3,4-dihydro-2H-pyrido[3,2-b][1,4]oxazine-6-carboxamide hydrochloride] gave an MIC of at most 2 µg/mL.
With `COc1ccc2ncc(F)c(CCN3CCC(NC(=O)c4ccc5c(n4)NC(=O)CS5)CC3)c2c1.Cl` [Example 95, N-(1-{2-[3-fluoro-6-(methoxy)-4-quinolinyl]ethyl}-4-piperidinyl)3-oxo-3,4-dihydro-2H-pyrido[3,2-b][1,4]thiazine-6-carboxamide hydrochloride] the MIC was at most 2 µg/mL.
`COc1cc(F)c2ncc(Cl)c(CCN3CC[C@H](NCc4cc5c(cn4)OCCO5)[C@H](O)C3)c2c1.Cl.Cl` [Example 98, (3R,4S)-1-{2-[3-chloro-8-fluoro-6-(methoxy)-4-quinolinyl]ethyl}-4-[(2,3-dihydro[1,4]dioxino[2,3-c]pyridin-7-ylmethyl)amino]-3-piperidinol dihydrochloride] showed an MIC of at most 2 µg/mL.
With `COc1ccc2ncc(Cl)c(C(CO)CN3CCC(NCc4ccc5c(n4)NC(=O)CS5)CC3)c2n1.Cl.Cl` (stereo not shown) [Example 105, 6-{[(1-{2-[3-chloro-6-(methoxy)-1,5-naphthyridin-4-yl]-3-hydroxypropyl}-4-piperidinyl)amino]methyl}-2H-pyrido[3,2-b][1,4]thiazin-3(4H)-one dihydrochloride] the MIC was at most 2 µg/mL.
Compound `Cl.Cl.O=C1CSc2ccc(CNC3CCN(CCc4c(F)cnc5ccc(F)cc45)CC3)nc2N1` [Example 106, 6-[({1-[2-(3,6-difluoro-4-quinolinyl)ethyl]-4-piperidinyl}amino)methyl]-2H-pyrido[3,2-b][1,4]thiazin-3(4H)-one dihydrochloride] has an MIC of at most 2 µg/mL.
Work on `COc1c(F)ccc2ncc(Cl)c(CCN3CCC(NCc4cc5c(cn4)OCCO5)CC3)c12.Cl.Cl` [Example 110, 1-{2-[3-chloro-6-fluoro-5-(methoxy)-4-quinolinyl]ethyl}-N-(2,3-dihydro[1,4]dioxino[2,3-c]pyridin-7-ylmethyl)-4-piperidinamine dihydrochloride] yielded an MIC of at most 2 µg/mL.
In the case of `COc1ccc2ncc(F)c(CCN3CCC(NCc4cc5c(cn4)OCCC5)CC3)c2n1.Cl.Cl` [Example 126, N-(3,4-dihydro-2H-pyrano[2,3-c]pyridin-6-ylmethyl)-1-{2-[3-fluoro-6-(methoxy)-1,5-naphthyridin-4-yl]ethyl}-4-piperidinamine dihydrochloride], the MIC is reported as at most 2 µg/mL.
For `COc1ccc2ncc(F)c(CCN3CCC(NCc4ccc5c(c4)NC(=O)CCS5)CC3)c2n1` [Example 128, 7-{[(1-{2-[3-fluoro-6-(methoxy)-1,5-naphthyridin-4-yl]ethyl}-4-piperidinyl)amino]methyl}-2,3-dihydro-1,5-benzothiazepin-4(5H)-one], the MIC was at most 2 µg/mL.
`COc1ccc2ncc(F)c(CCN3CCC(C)(NCc4ccc5c(n4)NC(=O)CO5)CC3)c2n1.Cl.Cl` [Example 138, 6-{[(1-{2-[3-fluoro-6-(methoxy)-1,5-naphthyridin-4-yl]ethyl}-4-methyl-4-piperidinyl)amino]methyl}-2H-pyrido[3,2-b][1,4]oxazin-3(4H)-one dihydrochloride] gave an MIC of at most 2 µg/mL.
With `COc1ccc2ncc(F)c(CCN3CCC(C)(NCc4ccc5c(n4)NC(=O)CS5)CC3)c2n1.Cl.Cl` [Example 139, 6-{[(1-{2-[3-fluoro-6-(methoxy)-1,5-naphthyridin-4-yl]ethyl}-4-methyl-4-piperidinyl)amino]methyl}-2H-pyrido[3,2-b][1,4]thiazin-3(4H)-one dihydrochloride] the MIC was at most 2 µg/mL.
For `COc1ccc2ncc(F)c(CCN3CCC(C)(NCc4cc5c(cn4)OCCO5)CC3)c2n1.Cl.Cl` [Example 140, N-(2,3-dihydro[1,4]dioxino[2,3-c]pyridin-7-ylmethyl)-1-{2-[3-fluoro-6-(methoxy)-1,5-naphthyridin-4-yl]ethyl}-4-methyl-4-piperidinamine dihydrochloride], the MIC was at most 2 µg/mL.
With `COc1ccc2ncc(F)c(CCN3CCC(NCc4ccc5c(c4)OCCO5)CC3)c2n1` [Example 157, N-(2,3-dihydro-1,4-benzodioxin-6-ylmethyl)-1-{2-[3-fluoro-6-(methoxy)-1,5-naphthyridin-4-yl]ethyl}-4-piperidinamine] the MIC was at most 2 µg/mL.
In the case of `COc1cc(F)c2ncc(Cl)c(CCN3CCC(NCc4ccc5c(n4)NC(=O)CS5)CC3)c2c1` [Example 160, 6-{[(1-{2-[3-chloro-8-fluoro-6-(methoxy)-4-quinolinyl]ethyl}-4-piperidinyl)amino]methyl}-2H-pyrido[3,2-b][1,4]thiazin-3(4H)-one], the MIC is reported as at most 2 µg/mL.
In the case of `COc1cc(F)c2ncc(Cl)c(CCN3CCC(NCc4cc5c(cn4)OCCO5)CC3)c2c1` [Example 161, 1-{2-[3-chloro-8-fluoro-6-(methoxy)-4-quinolinyl]ethyl}-N-(2,3-dihydro[1,4]dioxino[2,3-c]pyridin-7-ylmethyl)-4-piperidinamine], the MIC is reported as at most 2 µg/mL.
